Columns and labels:
[1] = tested on: stroke-prone spontaneously hypertensive rats (SHR-SP); assay: Cerebral stroke recurrence score (daily body weight change) after primary stroke attack in SHR-SP rats; type: in vivo, rat; settings: vs control
Protocol: (§1) The dose was 3 and 30 mg/kg, and it was repeatedly orally administered once a day.
(§2) SHR-SP male rats (9-week age when bought, by Nippon SLC) were bred under a constant-temperature and constant-humidity condition. The feed was solid SP feed for breeding SHR-SP rats; and every rat was kept to freely drink tap water as automatically supplied thereto. The body weight of each rat was measured everyday, and the rats were checked for an cerebral stroke attack (Stroke, Vol. 20(9), pp. 1212-1218, 1989; Journal of Pharmacology & Experimental Therapeutics, Vol. 291(2), pp. 569-575, 1999). The cerebral stroke attack in the rats of this line is accompanied by neurologic symptoms such as paralysis or hemiplegia (European Journal of Pharmacology, Vol. 192 (1), pp. 165-167, 1991), and abnormal body weight change such as rapid body weight reduction. The abnormal body weight change may be considered to be caused by the deterred drinking and eating owing to the cerebral stroke attack (Brain Research, Vol. 452 (1-2), pp. 323-328, 1988; Stroke, Vol. 20(8), pp. 1089-1091, 1989; European Journal of Pharmacology, Vol. 192 (1), pp. 165-167, 1991).
(§3) A Steel test was used to the neurologic symptom and recurrence scores, and a Log-rank test was applied to the survival rate.

[2] = tested on: hypertension cases or CHD-having cases; settings: cited from earlier work
eNOS = settings: cited from earlier work
[3] = tested on: stroke-prone spontaneously hypertensive rats (SHR-SP); assay: Survival rate after onset of the stroke in SHR-SP rats; type: in vivo, rat; settings: for survival rate: control 3/28 (10.7%)
Protocol: as §1, §2
Vehicle or atorvastatin was orally administered everyday, once a day from day of the first stroke to death.
as §3

[4] = tested on: stroke-prone spontaneously hypertensive rats (SHR-SP); assay: Cerebral stroke recurrence-accompanied neurologic symptom score in SHR-SP rats; type: in vivo, rat
From the text: Regarding the neurologic symptom, both the fore-legs and both the hind legs of a test case are checked for the paralysis and the activity depression as the items of the neurologic symptoms thereof, and they are scored depending on the degree of the symptoms. Concretely, according to a reference (European Journal of Pharmacology, 192, 165-167, 1991), they are normal state (score 0), light symptom (score 1), middle symptom (score 2) and heavy symptom (score 3); and the final data of an individual are the total of the scores of these items. The maximum score is 15.
as §1, §2
The rats were checked for their neurologic symptoms on the day the first stroke occurred and 7 and 14 days later by the modified method of Yamamoto (Brain Research, Vol. 452(1-2), pp. 323-328, 1988; Stroke, Vol. 20(8), pp. 1089-1091, 1989; European Journal of Pharmacology, Vol. 192(1), pp. 165-167, 1991). Both the fore-legs and both the hind legs of the rats were checked for the paralysis and the activity depression as the items of the neurologic symptoms thereof. […] The final data of the individual rat are the total of the scores of these items. The maximum score is 15.
as §3

[5] = tested on: stroke-prone spontaneously hypertensive rats (SHR-SP); assay: Blood pressure, heart beat and total cholesterol level in SHR-SP rats after primary stroke attack; type: in vivo, rat; settings: administration groups (3 and 30 mg/kg/day), within 2 weeks after the primary cerebral stroke attack
SHR-SP rats = settings: administration before attack; cited from earlier work
[6] = 3 mg/kg/day p.o., day 14 after the primary cerebral stroke attack, Steel test
[7] = 30 mg/kg/day p.o., day 7 after the primary cerebral stroke attack
[8] = 30 mg/kg/day p.o., day 14 after the primary cerebral stroke attack, Steel test

Row | Structure (SMILES) | cerebral stroke recurrence symptoms (recurrence score) [1, 6] | cerebral stroke recurrence symptoms (recurrence score) [1, 7] | cerebral stroke recurrence symptoms (recurrence score) [1, 8] | primary preventive effect for cerebral stroke [2] | eNOS activity (eNOS) | survival rate ([3]; 3 mg/kg/day p.o., day 35 after the primary cerebral stroke attack (6/29)) | improvement of survival rate vs control, Log-rank test ([3]; 30 mg/kg/day p.o.) | survival rate ([3]; 30 mg/kg/day p.o., day 35 after the primary cerebral stroke attack (8/24)) | neurologic symptoms (score) ([4]; 3 mg/kg/day p.o., day 7 after the primary cerebral stroke attack) | neurologic symptoms (score) [4, 6] | level of neurologic symptoms reached ([4]; 30 mg/kg administration group, day 14 after the primary cerebral stroke attack) | neurologic symptoms (score) [4, 7] | neurologic symptoms (score) [4, 8] | diastolic pressure vs control group [5] | heart beat vs control group [5] | mean blood pressure vs control group [5] | systolic pressure vs control group [5] | total cholesterol level vs control group [5] | prevention of cerebral stroke attack (SHR-SP rats) | survival rate (SHR-SP rats)
1 | CC(C)c1c(C(=O)Nc2ccccc2)c(-c2ccccc2)c(-c2ccc(F)cc2)n1CC[C@@H](O)C[C@@H](O)CC(=O)O [atorvastatin, (-)-(3R,5R)-7-[2-(4-fluorophenyl)-5-isopropyl-3-phenyl-4-phenylcarbamoyl-1H-pyrrol-1-yl]-3,5-dihydroxyheptanoic acid] | significant improvement | improved symptoms | significant improvement | effective for preventing a primary cerebral stroke | increases eNOS activity | 20.7% | significant difference | 33.3% | improved | significant improvement | restored nearly to the ordinary level | improved | significant improvement | no significant difference | no significant difference | no significant difference | no significant difference | no significant difference |  | 
2 | COCc1c(C(C)C)nc(C(C)C)c(/C=C/[C@@H](O)C[C@@H](O)CC(=O)O)c1-c1ccc(F)cc1 [serivastatin] |  |  |  |  |  |  |  |  |  |  |  |  |  |  |  |  |  |  | effective for prevention of cerebral stroke attack | effective for increasing a survival rate
